Reference: US20140242093A1, “METHODS AND COMPOSITIONS FOR MODULATING THE INNATE IMMUNE RESPONSE AND/OR MYOGENESIS IN A MAMMALIAN SUBJECT” (FRED HUTCHINSON CANCER RESEARCH CENTER, priority 2011, published 2014)

Experiments:
Human myoblasts = assay: Expression array of the innate immune response to lentiviral infection versus uninfected cells; type: cell-based
Method: RNA was harvested from the lenti-viral infected cells and uninfected control cells at 24 hours after infection.

[1] = tested on: Cultured control human myoblasts; assay: Beta-defensin 3 and innate immune response, real-time qPCR of IFIH1, ISG20, DEFB103; type: cell-based
Method: Cultured control human myoblasts were grown to 80% confluence and infected with equivalent titers of lenti-GFP, lenti-DUX4-s and lenti-DUX4-fl in growth media supplemented with 8 μg/mL polybrene. Expression of innate immune responsive genes including IFIH1 (MDA5), ISG20 and DEFB103 were assessed by real-time qPCR as previously described at 24 hours (primer sequences below). For conditioned media, cells were infected with lenti-DUX4-fl for 12 hours, thoroughly washed 3 times with PBS and switched to fresh growth media to condition for 12 hours. Control conditioned media was produced from cells not infected with any lentivirus. Myoblasts were infected with lenti-GFP in either control conditioned media, lenti-DUX4-fl conditioned media or regular growth media supplemented with 1 μM human β-defensin 3 (Peptides International, Louisville, Ky.). Expression of innate immune responsive genes were examined after 24 hours.

DUX4-fl: full-length DUX4 protein (SEQ ID NO:110), expressed from lentiviral or pCS2 vectors or in vitro translated
IFITM2 expression ratio vs NoLenti (.fc) (Human myoblasts; gene IFITM2 NM_006435.2, vs uninfected, 24 hours after infection): −0.46 log2 fold change
IFITM3 expression ratio vs GFP (.fc) (Human myoblasts; gene IFITM3 NM_021034.2, vs lenti-GFP, 24 hours after infection): −1.95 log2 fold change
IFITM3 expression ratio vs NoLenti (.fc) (Human myoblasts; gene IFITM3 NM_021034.2, vs uninfected, 24 hours after infection): −0.01 log2 fold change
IL1R1 expression ratio vs GFP (.fc) (Human myoblasts; gene IL1R1 NM_000877.2, vs lenti-GFP, 24 hours after infection): −1.34 log2 fold change
IL1R1 expression ratio vs NoLenti (.fc) (Human myoblasts; gene IL1R1 NM_000877.2, vs uninfected, 24 hours after infection): 0.09 log2 fold change
IL7R expression ratio vs GFP (.fc) (Human myoblasts; gene IL7R NM_002185.2, vs lenti-GFP, 24 hours after infection): −2.26 log2 fold change
IL7R expression ratio vs NoLenti (.fc) (Human myoblasts; gene IL7R NM_002185.2, vs uninfected, 24 hours after infection): −0.49 log2 fold change
IL8 expression ratio vs GFP (.fc) (Human myoblasts; gene IL8 NM_000584.2, vs lenti-GFP, 24 hours after infection): −3.88 log2 fold change
IL8 expression ratio vs NoLenti (.fc) (Human myoblasts; gene IL8 NM_000584.2, vs uninfected, 24 hours after infection): −0.13 log2 fold change
IL18BP expression ratio vs GFP (.fc) (Human myoblasts; gene IL18BP NM_173042.2, vs lenti-GFP, 24 hours after infection): −1.25 log2 fold change
IL18BP expression ratio vs NoLenti (.fc) (Human myoblasts; gene IL18BP NM_173042.2, vs uninfected, 24 hours after infection): 0.85 log2 fold change
IRF7 expression ratio vs GFP (.fc) (Human myoblasts; gene IRF7 NM_004029.2, vs lenti-GFP, 24 hours after infection): −1.96 log2 fold change
IRF7 expression ratio vs NoLenti (.fc) (Human myoblasts; gene IRF7 NM_004029.2, vs uninfected, 24 hours after infection): 1.02 log2 fold change
IRF9 expression ratio vs GFP (.fc) (Human myoblasts; gene IRF9 NM_006084.4, vs lenti-GFP, 24 hours after infection): −2.25 log2 fold change
IRF9 expression ratio vs NoLenti (.fc) (Human myoblasts; gene IRF9 NM_006084.4, vs uninfected, 24 hours after infection): 0.20 log2 fold change
MX1 expression ratio vs GFP (.fc) (Human myoblasts; gene MX1 NM_002462.2, vs lenti-GFP, 24 hours after infection): −5.67 log2 fold change
MX1 expression ratio vs NoLenti (.fc) (Human myoblasts; gene MX1 NM_002462.2, vs uninfected, 24 hours after infection): 1.58 log2 fold change
NFIL3 expression ratio vs GFP (.fc) (Human myoblasts; gene NFIL3 NM_005384.2, vs lenti-GFP, 24 hours after infection): −1.82 log2 fold change
NFIL3 expression ratio vs NoLenti (.fc) (Human myoblasts; gene NFIL3 NM_005384.2, vs uninfected, 24 hours after infection): 0.07 log2 fold change
NFKBIA expression ratio vs GFP (.fc) (Human myoblasts; gene NFKBIA NM_020529.1, vs lenti-GFP, 24 hours after infection): −3.00 log2 fold change
NFKBIA expression ratio vs NoLenti (.fc) (Human myoblasts; gene NFKBIA NM_020529.1, vs uninfected, 24 hours after infection): −0.83 log2 fold change
NFKBIZ expression ratio vs GFP (.fc) (Human myoblasts; gene NFKBIZ NM_001005474.1, vs lenti-GFP, 24 hours after infection): −1.57 log2 fold change
NFKBIZ expression ratio vs NoLenti (.fc) (Human myoblasts; gene NFKBIZ NM_001005474.1, vs uninfected, 24 hours after infection): 0.30 log2 fold change
STAT1 expression ratio vs GFP (.fc) (Human myoblasts; gene STAT1 NM_007315.2, vs lenti-GFP, 24 hours after infection): −2.92 log2 fold change
STAT1 expression ratio vs NoLenti (.fc) (Human myoblasts; gene STAT1 NM_007315.2, vs uninfected, 24 hours after infection): 1.08 log2 fold change
STAT2 expression ratio vs GFP (.fc) (Human myoblasts; gene STAT2 NM_005419.2, vs lenti-GFP, 24 hours after infection): −2.69 log2 fold change
STAT2 expression ratio vs NoLenti (.fc) (Human myoblasts; gene STAT2 NM_005419.2, vs uninfected, 24 hours after infection): −0.77 log2 fold change
TLR3 expression ratio vs GFP (.fc) (Human myoblasts; gene TLR3 NM_003265.2, vs lenti-GFP, 24 hours after infection): −1.27 log2 fold change
TLR3 expression ratio vs NoLenti (.fc) (Human myoblasts; gene TLR3 NM_003265.2, vs uninfected, 24 hours after infection): −0.06 log2 fold change
TNFAIP2 expression ratio vs GFP (.fc) (Human myoblasts; gene TNFAIP2 NM_006291.2, vs lenti-GFP, 24 hours after infection): −1.59 log2 fold change
TNFAIP2 expression ratio vs NoLenti (.fc) (Human myoblasts; gene TNFAIP2 NM_006291.2, vs uninfected, 24 hours after infection): −0.42 log2 fold change
TNFAIP3 expression ratio vs GFP (.fc) (Human myoblasts; gene TNFAIP3 NM_006290.2, vs lenti-GFP, 24 hours after infection): −2.90 log2 fold change
TNFAIP3 expression ratio vs NoLenti (.fc) (Human myoblasts; gene TNFAIP3 NM_006290.2, vs uninfected, 24 hours after infection): −0.38 log2 fold change
TNFAIP6 expression ratio vs GFP (.fc) (Human myoblasts; gene TNFAIP6 NM_007115.2, vs lenti-GFP, 24 hours after infection): −2.21 log2 fold change
TNFAIP6 expression ratio vs NoLenti (.fc) (Human myoblasts; gene TNFAIP6 NM_007115.2, vs uninfected, 24 hours after infection): 1.63 log2 fold change
TNFRSF6B expression ratio vs GFP (.fc) (Human myoblasts; gene TNFRSF6B NM_032945.2, vs lenti-GFP, 24 hours after infection): −1.68 log2 fold change
TNFRSF6B expression ratio vs NoLenti (.fc) (Human myoblasts; gene TNFRSF6B NM_032945.2, vs uninfected, 24 hours after infection): −0.29 log2 fold change
TNFRSF10A expression ratio vs GFP (.fc) (Human myoblasts; gene TNFRSF10A NM_003844.2, vs lenti-GFP, 24 hours after infection): −1.13 log2 fold change
TNFRSF10A expression ratio vs NoLenti (.fc) (Human myoblasts; gene TNFRSF10A NM_003844.2, vs uninfected, 24 hours after infection): 0.07 log2 fold change
TNFRSF14 expression ratio vs GFP (.fc) (Human myoblasts; gene TNFRSF14 NM_003820.2, vs lenti-GFP, 24 hours after infection): −2.72 log2 fold change
TNFRSF14 expression ratio vs NoLenti (.fc) (Human myoblasts; gene TNFRSF14 NM_003820.2, vs uninfected, 24 hours after infection): −1.36 log2 fold change
TNFSF10 expression ratio vs GFP (.fc) (Human myoblasts; gene TNFSF10 NM_003810.2, vs lenti-GFP, 24 hours after infection): −1.13 log2 fold change
TNFSF10 expression ratio vs NoLenti (.fc) (Human myoblasts; gene TNFSF10 NM_003810.2, vs uninfected, 24 hours after infection): 0.14 log2 fold change
TNFSF13B expression ratio vs GFP (.fc) (Human myoblasts; gene TNFSF13B NM_006573.3, vs lenti-GFP, 24 hours after infection): −1.76 log2 fold change
TNFSF13B expression ratio vs NoLenti (.fc) (Human myoblasts; gene TNFSF13B NM_006573.3, vs uninfected, 24 hours after infection): 0.12 log2 fold change
number of lentivirus-induced genes whose induction is suppressed (Human myoblasts; out of 341): 317 genes
number of the 341 lenti-GFP induced genes induced 2-fold or more (Human myoblasts; vs uninfected cells, 24 hours): 34 genes
expression of DEFB103A/B (β-defensin 3) ([1]; FIG. 7B): robustly induced expression of DEFB103A/B
induction of the innate immune response in myoblasts ([1]; RT-qPCR, similar titers, FIG. 7A): did not
